Test results reported in PMC11078216, “Discovery of potent and selective activity-based probes (ABPs) for the deubiquitinating enzyme USP30” (RSC Chemical Biology, 2024).

Target: T1, UCHL1 (Homo sapiens, UniProt P09936)
T1 sequence (P09936 1-223): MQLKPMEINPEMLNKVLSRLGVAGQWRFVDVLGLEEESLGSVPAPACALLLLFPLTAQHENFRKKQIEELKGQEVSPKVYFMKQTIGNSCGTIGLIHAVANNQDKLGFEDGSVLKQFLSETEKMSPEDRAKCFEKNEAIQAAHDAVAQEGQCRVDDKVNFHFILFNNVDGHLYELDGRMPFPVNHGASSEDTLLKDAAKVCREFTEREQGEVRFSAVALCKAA
Test: In-cell target engagement using HA-Ub-VME competition, immunoblot
Assay type: cell-based
Parameters: endogenous in cells; host or cells: HEK293T
Conditions: HEK293T cells, 1 hour, in-lysate HA-Ub-VME competition, western blot
Procedure: We next determined cellular engagement of endogenous USP30 with IMP-2587 or IMP-2586. […] In-cell concentration-dependent competition by IMP-2587 and IMP-2586 for USP30 were confirmed below 100 nM probe (Fig. 2b and c), whilst engagement of an exemplar unrelated DUB, UCHL1, occurred only at a much higher concentration (30 000 nM). We hypothesise that incomplete modification of USP30 by HA-Ub-VME is likely due to limited retention of USP30 activity in cell lysates, which have likely had the USP30 transmembrane domain compromised, highlighting the potential utility of a small molecule USP30 ABP applicable directly in intact cells. Direct USP30 target engagement by IMP-2587 and IMP-2586 was confirmed in HEK293T cells following 1 h probe treatment followed by cell lysis and CuAAC bio-orthogonal ligation to capture reagent azido-TAMRA-biotin (AzTB) for IMP-2587 or alkyne-TAMRA-biotin for IMP-2586 (Fig. 3a).[27] […] This unspecific background labelling is presumably due to the previously reported higher off-target CuAAC reactivity of an alkyne-bearing capture reagent, applied here due to incorporation of an azide tag in IMP-2586.[28] Moreover, the labelling of USP30 was further confirmed by biotin pulldown and immunoblotting.
2) USP30 in-cell engagement analysis […]
Protein concentration was determined by DC Protein assay (Bio-RAD). […]

SMILES	concentration at which UCHL1 engagement occurred
N#CN1CC[C@@H](NC(=O)c2cc(-c3ccccc3Oc3ccc(N=[N+]=[N-])cc3)n[nH]2)C1 [IMP-2586]	30 000 nM
C#Cc1cccc(-c2cc(NC(=O)CC3CCN(C#N)C3)on2)c1 (centres unmarked) [IMP-2587]	30 000 nM
